In patent publication EP4635490A1, “PM20D1-DERIVED N-OLEOYL-L-LEUCINE FOR THE TREATMENT AND PREVENTION OF NEURODEGENERATIVE DISEASES” (Consejo Superior De Investigaciones Científicas, priority 2024, dated 2025):

Tests used:
GMC101 worms [1] = experiment: Mobility phenotyping of GMC101 worms (AD model); type: in vivo, C. elegans; details: 200 µM C18:1-Leu, first 3 days of adulthood, vs vehicle
Procedure: (§1) • Fig. 1. C18:1-Leu treatment in neuronal cultures. a, Enzyme-linked immunosorbent assays (ELISA) of APP/PS1-derived hippocampal neuronal cultures treated during 24h with 200nM C18:1-Leu. n=5 per group, p=0.0093; one-sided Student's t-test. b, Lactate dehydrogenase (LDH) release viability assay of APP/PS1-derived hippocampal neuronal cultures treated during 16h with 150µM H2O2 and 200nM C18:1-Leu. ROS, reactive oxygen species. n=10 per group, p=0.0048; one-sided Student's t-test. b, AlamarBlue cell viability assay of SH-SY5Y cells treated during 24h with 10µM thapsigargin and 200nM C18:1 -Leu. UPS, unfolded-protein stress. n=5 per group, p=0.0084; one-sided Student's t-test. Single values (experiments) are represented by dots. *p<0.05, and **p<0.01. • Fig. 2. […] AD pathologies and phenotypes in APP/PS1 mice. a, Methoxy-X04 (MX04) IHC amyloid burden (area) quantification. n=8 per group, p=0.0283; one-sided Student's t-test. b, Novel object recognition (NOR) performance of vehicle and C18:1-Leu treated APP/PS1 mice. […]

GMC101 worms [2] = experiment: Amyloid aggregation in GMC101 worms (western blot); type: in vivo, C. elegans; details: 200 µM C18:1-Leu, GMC101 worms at day 1, vs vehicle; p=0.0108
Procedure: as §1

SH-SY5Y cells = experiment: AlamarBlue cell viability assay under thapsigargin (unfolded-protein stress); type: cell-based, human; details: 200nM C18:1-Leu, 24h with 10µM thapsigargin; n=5, p=0.0084
Procedure: as §1

[3] = tested on: APP/PS1-derived hippocampal neuronal cultures; experiment: LDH release viability assay under H2O2 (ROS) stress; type: cell-based, mice; details: 200nM C18:1-Leu, 16h with 150µM H2O2 (Fig. 1b legend); n=10, p=0.0048
Procedure: as §1

[4] = tested on: APP/PS1-derived primary microglia; experiment: Aβ clearance by primary microglia, Amyloid beta 40 ELISA; type: cell-based, mice; details: 200nM C18:1-Leu, 24h in presence of Aβ; n=5, p=0.0201
Procedure: as §1

[5] = tested on: APP/PS1-derived primary microglia; experiment: Transwell migration assay (Aβ chemotaxis) of primary microglia; type: cell-based, mice; details: 200nM C18:1-Leu, 24h, conditioned Aβ media in lower chamber; n=6, p=0.0007
Procedure: as §1

APP/PS1 mice [6] = experiment: Immunohistochemistry of brain sections of treated APP/PS1 mice (amyloid plaques, microglia, neuronal damage); type: in vivo
Procedure: • Fig. 1. C18:1-Leu treatment in neuronal cultures. a, Enzyme-linked immunosorbent assays (ELISA) of APP/PS1-derived hippocampal neuronal cultures treated during 24h with 200nM C18:1-Leu. n=5 per group, p=0.0093; one-sided Student's t-test. b, Lactate dehydrogenase (LDH) release viability assay of APP/PS1-derived hippocampal neuronal cultures treated during 16h with 150µM H2O2 and 200nM C18:1-Leu. ROS, reactive oxygen species. n=10 per group, p=0.0048; one-sided Student's t-test. b, AlamarBlue cell viability assay of SH-SY5Y cells treated during 24h with 10µM thapsigargin and 200nM C18:1 -Leu. UPS, unfolded-protein stress. n=5 per group, p=0.0084; one-sided Student's t-test. Single values (experiments) are represented by dots. *p<0.05, and **p<0.01. • Fig. 2. AD pathologies and phenotypes in GMC101 worms. a, Mobility assessment in vehicle and C18:1-Leu treated GMC101 worms during the 3 first days of adulthood. a.u., arbitrary units. n=75-100 worms per time, p=0.0001 and p=0.0152 for day 2 and 3, respectively; one-sided Student's t-test. b, Pumping per minute in vehicle and C18:1-Leu treated GMC101 worms at day 3. n=7 per group, p=0.0162; one-sided t-test. c, Relative amyloid aggregation in vehicle and C18:1-Leu treated GMC101 worms at day 1. n=6 experiments of -1000 worms each, pval=0.0108; one-sided Student's t-test. Single values (animals) are represented by dots. *p<0.05, and ***p<0.001. • Fig. 3. AD pathologies and phenotypes in APP/PS1 mice. a, Methoxy-X04 (MX04) IHC amyloid burden (area) quantification. n=8 per group, p=0.0283; one-sided Student's t-test. b, Novel object recognition (NOR) performance of vehicle and C18:1-Leu treated APP/PS1 mice. C18:1-Leu was provided from 15 to 18 months (m) of age. n=11-15 per group, p=0.0312. Single values (animals) are represented by dots. *p<0.05, **p<0.01, and ***p<0.001. • Fig. 4. Microglia analysis in C18:1-Leu treated APP/PS1 mice. a, Quantification of Ionized calcium-binding adaptor molecule 1 (IBA1, microglia) area within methoxy-X04 (MX04, amyloid plaques) region of interest (ROI). n=6-7 per group, p=0.0051; one-sided Student's t-test. b, Amyloid plaque number quantification. n=8 per group, p=0.0444; one-sided Student's t-test. c, Percentage of amyloid halo (diffuse, toxic) area over plaque dense core. n=8 per group, p=0.0389; one-sided Student's t-test. d, Percentage of the Lysosome-associated protein 1 (LAMP1, neuronal damage) area over to plaque dense core. n=8-9 per group, p=0.0132; one-sided Student's t-test. Single values (animals) are represented by dots. *p<0.05, and **p<0.01. • Fig. 5. C18:1-Leu treatment in microglia cultures. a, Transwell assay of APP/PS1-derived primary microglia treated during 24h with 200nM C18:1-Leu. n=6 per group, p=0.0007; one-sided Student's t-test. b, Amyloid-beta 40 (Aβ40) ELISA assays of APP/PS1-derived primary microglia cultures after 24h of 200nM C18:1-Leu treatment in presence of amyloid-beta (Aβ). n=5 per group, p=0.0201; one-sided Student's t-test. Single values (experiments) are represented by dots. *p<0.05, **p<0.01, and ***p<0.001. • Fig. 6. RNA expression signatures in human samples I. C18:1-Leu score according to PM20D1 haplotype in Alzheimer's disease (AD) and control postmortem brain samples. a, n=387 control and n=511 AD samples, Wilcoxon test, ****p<0.0001 • Fig. 7. RNA expression signatures in human samples II. Correlation between PIG and C18:1-Leu scores in AD samples. n=511 AD samples, Spearman correlation. • Fig. 8. […]

APP/PS1 mice [7] = experiment: Novel object recognition test in APP/PS1 mice; type: in vivo; details: 25 mg/kg/day p.o. during three months, starting at 15 months-of-age; n=11-15, p=0.0312
Procedure: as §1

[8] = tested on: APP/PS1-derived hippocampal neuronal cultures; experiment: ELISA of Aβ production in primary hippocampal neuronal cultures; type: cell-based, mice; details: 200nM C18:1-Leu, 24h vs vehicle; n=5, p=0.0093
Procedure: as §1

CCCCCCCC/C=C\CCCCCCCC(=O)N[C@@H](CC(C)C)C(=O)O [C18:1-Leu, N-oleoyl-L-Leucine] was tested, and the “AD-like phenotypes - spontaneous and induced mobility” value (GMC101 worms [1]) was “significantly improves”, the “amyloid pathologies (relative amyloid aggregation)” value (GMC101 worms [2]) was “significantly improves” and the “neuroprotection against UPS stress (cell viability, AlamarBlue)” value (SH-SY5Y cells) was “increases neuroprotection”. For the same molecule, the “neuroprotection against ROS (cell viability, LDH release)” value [3] was “increases neuroprotection against ROS”, the “Aβ clearance (remaining Aβ40 in media)” value [4] was “increases Aβ clearance” and the “Aβ chemotaxis (migrated microglia)” value [5] was “increased Aβ chemotaxis”. The “amyloid burden (Methoxy-X04 IHC area)” value (APP/PS1 mice [6]; 25 mg/kg/day p.o. during three months, starting at 15 months-of-age, n=8, p=0.0283) was “improves amyloid burden”, the “microglia association with amyloid plaques (relative MX04 area occupied by IBA1)” value (APP/PS1 mice [6]; C18:1-Leu treated APP/PS1 mice vs vehicle, n=6-7, p=0.0051) was “increased microglia association” and the “relative size of the diffuse halo of the plaques” value (APP/PS1 mice [6]; C18:1-Leu treated APP/PS1 mice vs vehicle, n=8, p=0.0389) was “reduced”. The “number of amyloid plaques” value (APP/PS1 mice [6]; C18:1-Leu treated APP/PS1 mice vs vehicle, n=8, p=0.0444) was “reduced”, the “LAMP1 area (neuronal damage) over plaque dense core” value (APP/PS1 mice [6]; C18:1-Leu treated APP/PS1 mice vs vehicle, n=8-9, p=0.0132) was “stronger LAMP1 area reduction” and the “cognitive deficits (novel object recognition test)” value (APP/PS1 mice [7]) was “improves”. The Aβ production [8] was “reduces Aβ production in neuronal cells”.
